Target: T1, PI3Kα kinase (Homo sapiens, UniProt P42336)
T1 construct: purchased Invitrogen PV4788
Assay: PI3Ka Transcreener ADP assay (fluorescence polarization)
Format: biochemical
Settings: 10 μM ATP, 30 μmol/L lipid substrate; read-out: IC50, inhibition of PI3Kα kinase
Description: Fluorescence polarization was used in this assay. The final conditions for kinase assay are 10 μM of ATP, 0.2 ng/μL of PI3Kα kinase, 30 μmol/L of lipid substrate and assay buffer (50 mmol/L of HEPES (pH 7.5), 100 mmol/L of NaCl, 1 mmol/L of EGTA, 3 mmol/L of MgCl2, 1 mmol/L of DTT and 0.03% CHAPS and 2% DMSO).
5 μL of test compounds in 10% DMSO and 10 μL of 0.5 ng/μL PI3K kinase (Invitrogen, PV4788) in assay buffer are put into a 96-well plate (Greiner, Cat. 675076), and then the reaction is started by the addition of 10 μL of 75 μmol/L PIP2, (PS Lipid Substrate Invitrogen, PV5100), and 25 μmol/L ATP mixture. After the mixture is incubated for 60 minutes at room temperature, 25 μL of transcreener Kinase Kit reagent—ADP Detection Mix—(Bellbrook Labs) is added, and the reaction is continued for an additional 1.5 hours. At the end, the plate is read in a Tecan Infinite F500 at excitation of 610 nm and emission of 670 nm.
A standard curve for ADP is obtained in a parallel way by replacing compound and PI3Kα kinase with DMSO and assay buffer, respectively. Different concentration of ADP, 0-10 μM, and ATP, 10-0 μM (ATP+ADP equal to 10 μM) are applied instead of a fixed concentration of ATP in this standard curve assay. Other conditions are the same as described above. The standard curve is plotted using Origin 8.0 software. The inhibition of test compound on ADP production is calculated based on ADP concentration from standard curve. IC50 is obtained using XLfit 2.0 software.

T1 sequence (P42336 whole entry): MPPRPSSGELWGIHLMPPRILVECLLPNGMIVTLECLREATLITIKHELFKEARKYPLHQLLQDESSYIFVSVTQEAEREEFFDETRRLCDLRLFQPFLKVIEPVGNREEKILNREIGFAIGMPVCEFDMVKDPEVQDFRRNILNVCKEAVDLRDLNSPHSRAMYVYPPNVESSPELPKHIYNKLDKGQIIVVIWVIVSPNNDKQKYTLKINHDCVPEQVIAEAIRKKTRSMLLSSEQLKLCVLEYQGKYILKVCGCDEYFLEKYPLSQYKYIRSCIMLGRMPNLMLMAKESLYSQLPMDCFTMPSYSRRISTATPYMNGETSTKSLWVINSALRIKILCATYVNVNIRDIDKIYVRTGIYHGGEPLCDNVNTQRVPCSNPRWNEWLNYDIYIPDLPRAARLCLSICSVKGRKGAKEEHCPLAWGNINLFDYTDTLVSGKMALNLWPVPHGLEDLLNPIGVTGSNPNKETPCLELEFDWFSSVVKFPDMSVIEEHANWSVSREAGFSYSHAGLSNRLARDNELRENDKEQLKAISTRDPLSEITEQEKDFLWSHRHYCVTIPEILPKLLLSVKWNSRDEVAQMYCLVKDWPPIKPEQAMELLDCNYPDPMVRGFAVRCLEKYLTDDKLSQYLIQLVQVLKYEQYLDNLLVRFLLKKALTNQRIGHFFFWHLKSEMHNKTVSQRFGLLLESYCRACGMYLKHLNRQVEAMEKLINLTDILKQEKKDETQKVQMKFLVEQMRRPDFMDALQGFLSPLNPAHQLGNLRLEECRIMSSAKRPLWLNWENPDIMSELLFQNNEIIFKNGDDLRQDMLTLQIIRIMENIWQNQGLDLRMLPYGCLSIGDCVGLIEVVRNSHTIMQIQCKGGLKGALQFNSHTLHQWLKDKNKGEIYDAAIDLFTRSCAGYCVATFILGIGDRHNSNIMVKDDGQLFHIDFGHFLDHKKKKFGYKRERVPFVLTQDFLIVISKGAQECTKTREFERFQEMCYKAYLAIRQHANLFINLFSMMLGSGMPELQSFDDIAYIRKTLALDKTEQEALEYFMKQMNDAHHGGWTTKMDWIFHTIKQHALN
T1 sequence (P27986 whole entry partner): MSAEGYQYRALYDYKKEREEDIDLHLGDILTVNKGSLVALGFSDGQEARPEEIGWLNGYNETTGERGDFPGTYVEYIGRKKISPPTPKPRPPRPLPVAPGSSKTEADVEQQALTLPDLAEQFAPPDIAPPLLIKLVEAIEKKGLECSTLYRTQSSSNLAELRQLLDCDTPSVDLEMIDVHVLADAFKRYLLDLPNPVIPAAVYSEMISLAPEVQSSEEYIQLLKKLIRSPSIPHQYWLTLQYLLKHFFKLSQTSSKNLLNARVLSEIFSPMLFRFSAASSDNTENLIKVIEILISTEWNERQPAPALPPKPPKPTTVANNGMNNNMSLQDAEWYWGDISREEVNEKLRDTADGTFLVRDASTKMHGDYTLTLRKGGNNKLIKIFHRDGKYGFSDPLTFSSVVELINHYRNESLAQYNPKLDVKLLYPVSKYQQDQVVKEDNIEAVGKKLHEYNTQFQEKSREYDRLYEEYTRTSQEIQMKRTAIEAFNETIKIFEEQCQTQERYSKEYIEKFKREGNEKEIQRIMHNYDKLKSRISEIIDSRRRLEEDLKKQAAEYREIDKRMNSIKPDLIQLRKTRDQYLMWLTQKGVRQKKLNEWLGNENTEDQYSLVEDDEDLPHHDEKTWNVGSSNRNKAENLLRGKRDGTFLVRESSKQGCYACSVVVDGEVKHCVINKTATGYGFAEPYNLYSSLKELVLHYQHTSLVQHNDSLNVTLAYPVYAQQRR

Structure (SMILES)	IC50 [µM]
CCNC(=O)N1CCC(n2cnc3cnc4ccc(-c5cnc(N)c(C(F)(F)F)c5)nc4c32)CC1 [Compound 101]	< 0.1
C[C@H](O)C(=O)N1CCC(c2nnc3cnc4ccc(-c5cnc(N)c(C(F)(F)F)c5)cc4n23)CC1 [Compound 79, (S)-1-(4-(8-(6-amino-5-(trifluoromethyl)pyridin-3-yl)-[1,2,4]triazolo[4,3-a]quinoxalin-1-yl)piperidin-1-yl)-2-hydroxypropan-1-one]	< 0.1
Cc1cc(-c2ccc3ncc4nnn(C5CCN(C(=O)[C@H](C)O)CC5)c4c3n2)cnc1N [Compound 3]	< 0.1
Cc1nc2cnc3ccc(-c4cnc(N)c(C(F)(F)F)c4)nc3c2n1C1CCN(C(=O)c2ccccn2)CC1 [Compound 132]	< 0.1
Nc1ncc(-c2ccc3ncc4nnn(C5CCN(Cc6ccccn6)CC5)c4c3n2)cc1C(F)(F)F [Compound 47]	< 0.1
COc1ncc(-c2ccc3ncc4nnc(C(=O)N(C)C)n4c3c2)cc1NS(=O)(=O)C1CC1 [Compound 168]	< 0.1
Cc1nc2cnc3ccc(-c4cnc(N)c(C(F)(F)F)c4)nc3c2n1CCCN1CCOCC1 [Compound 142]	< 0.1
COc1ccc(-c2ccc3ncc4nnn(C5CCN(C(=O)[C@H](C)O)CC5)c4c3n2)cn1 [Compound 5]	< 0.1
CC(C)(C#N)c1ccc(-c2nnc3cnc4ccc(-c5ccc6nc(N)oc6c5)cc4n23)cn1 [Compound 67]	< 0.1
Nc1ncc(-c2ccc3ncc4nnc(C5CCC(O)CC5)n4c3c2)cc1C(F)(F)F (centres unmarked) [Compound 85]	< 0.1
COc1cc(-c2ccc3ncc4ncn(C5CCN(CC(=O)N(C)C)CC5)c4c3n2)cnc1OC [Compound 99]	< 0.1
Cc1ccc(-c2ccc3ncc4ncn(C5CCN(C(=O)[C@H](C)O)CC5)c4c3n2)cn1 [Compound 113]	< 0.1

Continued, values first:

IC50 [µM]	Structure (SMILES)
< 0.1	Cc1cc(-c2ccc3ncc4nc(C)n(C5CCC(N6CCOCC6)CC5)c4c3n2)cnc1N (centres unmarked) [Compound 136]
< 0.1	CC(=O)N1CCC(Cc2nnc3cnc4ccc(-c5cnc(N)c(C(F)(F)F)c5)cc4n23)CC1 [Compound 82]
< 0.1	COc1ncc(-c2ccc3ncc4nnc(C)n4c3c2)cc1NS(C)(=O)=O [Compound 150]
< 0.1	COc1ncc(-c2ccc3ncc4nnc(CN5CCOCC5)n4c3c2)cc1NS(C)(=O)=O [Compound 172]
< 0.1	Nc1ncc(-c2ccc3ncc4ncn(CCN5CCCC5)c4c3n2)cc1C(F)(F)F [Compound 111]
< 0.1	Nc1ncc(-c2ccc3ncc4nnn(C5CCN(C(=O)CC6CC6)CC5)c4c3n2)cc1C(F)(F)F [Compound 38]
< 0.1	COc1ncc(-c2ccc3ncc4nnc(C5CC5)n4c3c2)cc1NS(=O)(=O)c1ccc(F)cc1F [Compound 162]
< 0.1	CC(C)(C#N)c1ccc(-c2nnc3cnc4ccc(-c5cnc(N)c(C(F)(F)F)c5)cc4n23)cn1 [Compound 54]
< 0.1	Cc1nc2cnc3ccc(-c4cnc(N)c(C(F)(F)F)c4)nc3c2n1C1CCN(C(=O)[C@@H](C)O)CC1 [Compound 126]
< 0.1	Cc1cc(-c2ccc3ncc4nnn(C5CCN(C(=O)[C@@H](C)O)CC5)c4c3n2)cnc1N [Compound 22]
< 0.1	C[C@H](O)C(=O)N1CCC(c2nnc3cnc4ccc(-c5ccc6nc(N)sc6c5)cc4n23)CC1 [Compound 80]
< 0.1	COc1ncc(-c2ccc3ncc4nc(C)n(C5CCN(C(=O)C6CC6)CC5)c4c3n2)cc1C(F)(F)F [Compound 143]
< 0.1	Cc1nc2cnc3ccc(-c4cnc(N)c(C(F)(F)F)c4)nc3c2n1C1CCN(CC(=O)N2CCCC2)CC1 [Compound 125]
< 0.1	Cc1ccc(-c2nnc3cnc4ccc(-c5cnc(N)c(C(F)(F)F)c5)cc4n23)cn1 [Compound 65]
< 0.1	Nc1ncc(-c2ccc3ncc4ncn(CCN5CCOCC5)c4c3n2)cc1C(F)(F)F [Compound 109]
< 0.1	CC(C)(C#N)c1ccc(-c2nnc3cnc4ccc(-c5cnc6[nH]ccc6c5)cc4n23)cc1 [Compound 69]
< 0.1	COc1ncc(-c2ccc3ncc4nnc(C(=O)N(C)C)n4c3c2)cc1NS(=O)(=O)c1ccccc1 [Compound 169]

— patent US9181264B2, “Fused heteroaryls and their uses” (Hutchison MediPharma Limited, priority 2011, dated 2015)
